# According to patent US20230391768A2, “IMIDAZOPYRIDINE DERIVATIVES AND AZA-IMIDAZOPYRIDINE DERIVATIVES AS JANUS KINASE 2 INHIBITORS AND USES THEREOF” (Dana-Farber Cancer Institute, Inc., priority 2018, published 2023):
# Key:
# Test in all cases: KINOMEscan
# Assay type in all cases: binding
# Conditions in all cases: read-out: percent of control
# PIK3CB = PIK3CB (Homo sapiens (Human), UniProt P42338)
# Description: (§1) In vitro profiling of Compound I-2 (1 μM) was performed using the DiscoveRx KINOMEscan® platform.
# PAK7 = PAK7 (Homo sapiens (Human), UniProt Q9P286)
# Description: as §1
# RET (M918T) = RET (M918T) (Homo sapiens (Human), UniProt P07949, M918T)
# Description: as §1
# BRSK2 = BRSK2 (Homo sapiens (Human), UniProt Q8IWQ3)
# Description: as §1
# RET = RET (Homo sapiens (Human), UniProt P07949)
# Description: as §1
# KIT = KIT (Homo sapiens (Human), UniProt P10721)
# Description: as §1
# TTK = TTK (Homo sapiens (Human), UniProt P33981)
# Description: as §1
# [1] = target: ABL1(F317L)-nonphosphorylated (Homo sapiens (Human), UniProt P00519, F317L)
# Description: as §1
# MEK3 = MEK3 (Homo sapiens (Human), UniProt P46734)
# Description: as §1
# FGR = FGR (Homo sapiens (Human), UniProt P09769)
# Description: as §1
# EGFR(L747-E749del,A750P) = EGFR(L747-E749del,A750P) (Homo sapiens (Human), UniProt P00533, A750P/DEL747-749)
# Description: as §1
# NEK5 = NEK5 (Homo sapiens (Human), UniProt Q6P3R8)
# Description: as §1
# MKNK2 = MKNK2 (Homo sapiens (Human), UniProt Q9HBH9)
# Description: as §1
# HIPK2 = HIPK2 (Homo sapiens (Human), UniProt Q9H2X6)
# Description: as §1
# ICK = ICK (Homo sapiens (Human), UniProt Q9UPZ9)
# Description: as §1
# RIOK1 = RIOK1 (Homo sapiens (Human), UniProt Q9BRS2)
# RIOK1, sequence (Q9BRS2 whole entry): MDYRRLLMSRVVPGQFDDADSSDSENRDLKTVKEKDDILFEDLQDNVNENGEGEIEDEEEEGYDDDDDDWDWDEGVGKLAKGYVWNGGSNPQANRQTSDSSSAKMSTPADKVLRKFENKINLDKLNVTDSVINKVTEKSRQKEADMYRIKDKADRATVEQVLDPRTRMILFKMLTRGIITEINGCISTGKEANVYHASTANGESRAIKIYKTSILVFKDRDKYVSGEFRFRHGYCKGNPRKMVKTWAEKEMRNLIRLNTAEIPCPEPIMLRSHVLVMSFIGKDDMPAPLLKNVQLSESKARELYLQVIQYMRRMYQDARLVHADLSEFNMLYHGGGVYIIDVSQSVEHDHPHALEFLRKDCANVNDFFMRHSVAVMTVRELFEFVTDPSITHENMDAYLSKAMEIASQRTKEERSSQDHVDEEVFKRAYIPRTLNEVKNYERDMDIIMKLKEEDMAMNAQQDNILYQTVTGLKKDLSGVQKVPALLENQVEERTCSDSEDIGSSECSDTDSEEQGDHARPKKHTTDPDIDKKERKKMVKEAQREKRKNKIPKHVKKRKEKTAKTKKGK
# Description: as §1
# IKK-beta = IKK-beta (Homo sapiens (Human), UniProt O14920)
# Description: as §1
# PIK3C2G = PIK3C2G (Homo sapiens (Human), UniProt O75747)
# Description: as §1
# DYRK1B = DYRK1B (Homo sapiens (Human), UniProt Q9Y463)
# Description: as §1
# PLK4 = PLK4 (Homo sapiens (Human), UniProt O00444)
# PLK4, sequence (O00444 whole entry): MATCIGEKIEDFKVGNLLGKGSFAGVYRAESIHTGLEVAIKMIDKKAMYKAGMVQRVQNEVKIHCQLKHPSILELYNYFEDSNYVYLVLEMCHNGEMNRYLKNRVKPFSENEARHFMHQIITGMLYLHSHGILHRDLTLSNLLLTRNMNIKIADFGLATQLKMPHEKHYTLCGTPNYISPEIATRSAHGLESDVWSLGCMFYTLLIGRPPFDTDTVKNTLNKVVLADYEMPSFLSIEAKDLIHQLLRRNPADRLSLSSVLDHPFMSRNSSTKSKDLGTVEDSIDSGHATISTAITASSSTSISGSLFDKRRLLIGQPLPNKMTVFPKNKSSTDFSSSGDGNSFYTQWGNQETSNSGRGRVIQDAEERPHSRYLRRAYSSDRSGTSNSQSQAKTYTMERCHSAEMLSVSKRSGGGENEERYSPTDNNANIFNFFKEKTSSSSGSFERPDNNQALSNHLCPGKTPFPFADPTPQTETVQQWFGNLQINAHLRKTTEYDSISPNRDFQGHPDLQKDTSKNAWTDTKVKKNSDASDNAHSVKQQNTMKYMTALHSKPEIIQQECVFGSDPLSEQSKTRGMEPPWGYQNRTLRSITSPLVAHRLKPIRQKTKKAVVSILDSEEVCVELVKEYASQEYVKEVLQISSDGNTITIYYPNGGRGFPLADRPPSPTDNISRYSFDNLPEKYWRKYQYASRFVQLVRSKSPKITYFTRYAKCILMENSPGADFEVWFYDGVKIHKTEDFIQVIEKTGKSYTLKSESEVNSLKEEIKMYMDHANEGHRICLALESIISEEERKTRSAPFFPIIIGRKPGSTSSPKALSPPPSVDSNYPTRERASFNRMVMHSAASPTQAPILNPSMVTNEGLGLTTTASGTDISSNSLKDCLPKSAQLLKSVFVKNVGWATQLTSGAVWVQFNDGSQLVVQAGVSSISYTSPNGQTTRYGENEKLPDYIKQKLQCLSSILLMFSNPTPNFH
# Description: as §1
# WNK1 = WNK1 (Homo sapiens (Human), UniProt Q9H4A3)
# Description: as §1
# ERK5 = ERK5 (Homo sapiens (Human), UniProt Q13164)
# Description: as §1
# PRKR = PRKR (Homo sapiens (Human), UniProt P19525)
# Description: as §1
# DYRKIA = DYRKIA (Homo sapiens (Human), UniProt Q13627)
# Description: as §1
# PLK1 = PLK1 (Homo sapiens (Human), UniProt P53350)
# Description: as §1
# PRKD3 = PRKD3 (Homo sapiens (Human), UniProt O94806)
# Description: as §1
# CTK = CTK (Homo sapiens (Human), UniProt P42679)
# Description: as §1
# PIK3CA(Q546K) = PIK3CA(Q546K) (Homo sapiens (Human), UniProt P42336, Q546K)
# PIK3CA(Q546K), sequence (P42336 whole entry Q546K): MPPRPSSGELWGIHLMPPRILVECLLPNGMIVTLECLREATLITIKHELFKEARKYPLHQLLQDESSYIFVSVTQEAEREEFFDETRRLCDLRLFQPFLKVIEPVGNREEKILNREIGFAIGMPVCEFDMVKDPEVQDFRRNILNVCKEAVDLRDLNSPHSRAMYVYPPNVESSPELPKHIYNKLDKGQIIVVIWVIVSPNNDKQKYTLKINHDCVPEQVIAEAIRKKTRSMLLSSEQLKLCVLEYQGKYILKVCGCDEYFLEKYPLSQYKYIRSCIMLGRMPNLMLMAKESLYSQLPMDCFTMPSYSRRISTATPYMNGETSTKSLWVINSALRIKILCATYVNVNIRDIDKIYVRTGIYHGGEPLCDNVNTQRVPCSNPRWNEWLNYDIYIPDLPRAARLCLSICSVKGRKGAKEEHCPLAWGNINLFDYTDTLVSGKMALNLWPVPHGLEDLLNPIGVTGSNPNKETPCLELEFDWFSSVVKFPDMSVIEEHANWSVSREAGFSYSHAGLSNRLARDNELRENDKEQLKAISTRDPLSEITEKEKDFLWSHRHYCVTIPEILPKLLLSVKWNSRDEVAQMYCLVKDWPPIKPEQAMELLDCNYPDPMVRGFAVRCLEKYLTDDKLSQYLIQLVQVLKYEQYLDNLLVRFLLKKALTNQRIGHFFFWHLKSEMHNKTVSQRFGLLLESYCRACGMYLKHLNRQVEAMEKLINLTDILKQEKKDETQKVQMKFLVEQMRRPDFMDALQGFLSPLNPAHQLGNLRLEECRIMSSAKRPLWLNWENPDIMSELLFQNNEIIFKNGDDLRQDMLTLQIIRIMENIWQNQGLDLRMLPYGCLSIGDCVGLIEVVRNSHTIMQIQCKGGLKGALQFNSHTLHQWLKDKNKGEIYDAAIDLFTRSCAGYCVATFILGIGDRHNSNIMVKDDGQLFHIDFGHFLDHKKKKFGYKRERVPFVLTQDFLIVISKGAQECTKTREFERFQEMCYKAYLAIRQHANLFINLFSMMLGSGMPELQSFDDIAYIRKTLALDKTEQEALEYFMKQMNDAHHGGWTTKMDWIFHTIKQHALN
# Description: as §1
# DLK = DLK (Homo sapiens (Human), UniProt Q12852)
# DLK, sequence (Q12852 whole entry): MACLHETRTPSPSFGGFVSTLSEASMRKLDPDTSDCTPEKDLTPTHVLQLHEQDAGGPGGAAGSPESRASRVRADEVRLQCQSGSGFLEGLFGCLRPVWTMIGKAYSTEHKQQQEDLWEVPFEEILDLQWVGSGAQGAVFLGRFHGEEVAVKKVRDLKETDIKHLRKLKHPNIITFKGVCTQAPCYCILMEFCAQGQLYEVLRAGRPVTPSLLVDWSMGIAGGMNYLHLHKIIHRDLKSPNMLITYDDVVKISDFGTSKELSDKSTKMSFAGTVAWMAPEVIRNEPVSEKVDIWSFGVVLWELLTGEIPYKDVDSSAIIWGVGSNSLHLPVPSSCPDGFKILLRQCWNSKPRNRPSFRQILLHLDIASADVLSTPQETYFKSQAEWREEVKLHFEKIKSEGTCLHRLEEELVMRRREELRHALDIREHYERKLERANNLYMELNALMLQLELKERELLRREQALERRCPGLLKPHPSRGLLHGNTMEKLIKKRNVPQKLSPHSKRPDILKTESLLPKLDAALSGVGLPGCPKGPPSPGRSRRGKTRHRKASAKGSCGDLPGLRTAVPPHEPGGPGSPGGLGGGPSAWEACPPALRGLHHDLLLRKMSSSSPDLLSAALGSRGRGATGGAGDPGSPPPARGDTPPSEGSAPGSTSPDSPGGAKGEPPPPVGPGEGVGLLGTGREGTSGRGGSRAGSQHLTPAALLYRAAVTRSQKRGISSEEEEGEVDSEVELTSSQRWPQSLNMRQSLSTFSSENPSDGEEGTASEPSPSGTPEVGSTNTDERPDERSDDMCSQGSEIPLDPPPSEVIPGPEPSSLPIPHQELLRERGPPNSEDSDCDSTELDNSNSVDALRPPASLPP
# Description: as §1
# NEK4 = NEK4 (Homo sapiens (Human), UniProt P51957)
# Description: as §1
# [2] = target: ABL1(T315I)-nonphosphorylated (Homo sapiens (Human), UniProt P00519, T315I)
# Description: as §1
# DRAK2 = DRAK2 (Homo sapiens (Human), UniProt O94768)
# DRAK2, sequence (O94768 whole entry): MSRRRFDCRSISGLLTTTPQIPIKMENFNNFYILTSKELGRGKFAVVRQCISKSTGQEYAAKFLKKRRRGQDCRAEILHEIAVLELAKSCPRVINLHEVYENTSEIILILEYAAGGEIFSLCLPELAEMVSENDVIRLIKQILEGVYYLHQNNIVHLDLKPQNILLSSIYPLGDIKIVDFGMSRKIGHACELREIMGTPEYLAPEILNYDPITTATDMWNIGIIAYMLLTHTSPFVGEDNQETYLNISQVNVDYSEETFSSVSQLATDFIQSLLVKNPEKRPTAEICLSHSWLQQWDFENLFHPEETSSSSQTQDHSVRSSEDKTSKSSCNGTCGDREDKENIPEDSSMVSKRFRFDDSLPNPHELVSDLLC
# Description: as §1
# BMPR1B = BMPR1B (Homo sapiens (Human), UniProt O00238)
# Description: as §1
# ERBB2 = ERBB2 (Homo sapiens (Human), UniProt P04626)
# ERBB2, sequence (P04626 23-1255): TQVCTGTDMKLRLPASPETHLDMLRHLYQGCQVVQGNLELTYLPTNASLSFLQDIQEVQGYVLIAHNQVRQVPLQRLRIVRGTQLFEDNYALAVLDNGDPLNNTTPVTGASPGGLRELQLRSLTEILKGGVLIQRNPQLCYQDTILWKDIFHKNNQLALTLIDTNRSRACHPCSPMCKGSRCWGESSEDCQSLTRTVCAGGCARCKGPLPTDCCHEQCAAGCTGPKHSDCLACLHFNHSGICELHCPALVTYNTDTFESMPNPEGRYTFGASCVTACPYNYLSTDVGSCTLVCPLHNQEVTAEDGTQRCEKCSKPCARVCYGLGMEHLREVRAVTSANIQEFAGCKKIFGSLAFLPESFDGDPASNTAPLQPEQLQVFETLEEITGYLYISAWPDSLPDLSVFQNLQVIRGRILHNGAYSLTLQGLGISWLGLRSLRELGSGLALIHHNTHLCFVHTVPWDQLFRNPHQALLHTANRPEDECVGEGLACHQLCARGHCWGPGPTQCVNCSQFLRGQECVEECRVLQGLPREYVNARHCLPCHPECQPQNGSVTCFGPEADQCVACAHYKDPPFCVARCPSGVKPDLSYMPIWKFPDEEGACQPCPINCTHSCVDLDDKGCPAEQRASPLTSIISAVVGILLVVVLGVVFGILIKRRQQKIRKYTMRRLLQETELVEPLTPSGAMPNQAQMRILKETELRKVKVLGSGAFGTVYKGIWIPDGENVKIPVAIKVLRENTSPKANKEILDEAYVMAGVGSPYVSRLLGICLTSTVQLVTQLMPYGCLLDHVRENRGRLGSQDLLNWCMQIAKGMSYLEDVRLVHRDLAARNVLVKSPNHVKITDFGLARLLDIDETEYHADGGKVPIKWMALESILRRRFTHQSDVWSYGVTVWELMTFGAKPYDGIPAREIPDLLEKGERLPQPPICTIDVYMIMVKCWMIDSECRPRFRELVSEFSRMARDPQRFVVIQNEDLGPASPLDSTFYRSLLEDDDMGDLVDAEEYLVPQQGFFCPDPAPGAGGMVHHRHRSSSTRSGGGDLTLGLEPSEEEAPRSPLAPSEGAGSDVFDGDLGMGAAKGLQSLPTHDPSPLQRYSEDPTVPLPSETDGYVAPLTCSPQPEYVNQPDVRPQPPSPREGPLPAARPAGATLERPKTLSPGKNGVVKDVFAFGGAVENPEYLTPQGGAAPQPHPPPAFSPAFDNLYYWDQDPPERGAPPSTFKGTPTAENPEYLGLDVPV
# Description: as §1
# CDK3 = CDK3 (Homo sapiens (Human), UniProt Q00526)
# Description: as §1
# SGK3 = SGK3 (Homo sapiens (Human), UniProt Q96BR1)
# Description: as §1
# PKAC-beta = PKAC-beta (Homo sapiens (Human), UniProt P22694)
# Description: as §1
# CDC2L5 = CDC2L5 (Homo sapiens (Human), UniProt Q14004)
# Description: as §1
# ADCK3 = ADCK3 (Homo sapiens (Human), UniProt Q8NI60)
# Description: as §1
SMILES,remaining binding at 1 µM (PIK3CB),remaining binding at 1 µM (PAK7),remaining binding at 1 µM (RET (M918T)),remaining binding at 1 µM (BRSK2),remaining binding at 1 µM (RET),remaining binding at 1 µM (KIT),remaining binding at 1 µM (TTK),remaining binding at 1 µM [1],remaining binding at 1 µM (MEK3),remaining binding at 1 µM (FGR),"remaining binding at 1 µM (EGFR(L747-E749del,A750P))",remaining binding at 1 µM (NEK5),remaining binding at 1 µM (MKNK2),remaining binding at 1 µM (HIPK2),remaining binding at 1 µM (ICK),remaining binding at 1 µM (RIOK1),remaining binding at 1 µM (IKK-beta),remaining binding at 1 µM (PIK3C2G),remaining binding at 1 µM (DYRK1B),remaining binding at 1 µM (PLK4),further results
"CCN1CCN(Cc2cc(NC(=O)c3ccc(C)c(-c4ccc5nc(NC(=O)C6CC6)cn5c4)c3)cc(C(F)(F)F)c2)CC1 [Compound I-6, 3-(2-(cyclopropanecarboxamido)imidazo[1,2-a]pyridin-6-yl)-N-(3-((4-ethylpiperazin-1-yl)methyl)-5-(trifluoromethyl)phenyl)-4-methylbenzamide]",94%,98%,0%,71%,0%,0%,83%,0%,87%,0%,18%,100%,82%,94%,68%,95%,80%,95%,87%,95%,remaining binding at 1 µM (WNK1): 100%; remaining binding at 1 µM (ERK5): 92%; remaining binding at 1 µM (PRKR): 95%; remaining binding at 1 µM (DYRKIA): 100%; remaining binding at 1 µM (PLK1): 100%; remaining binding at 1 µM (PRKD3): 90%; remaining binding at 1 µM (CTK): 31%; remaining binding at 1 µM (PIK3CA(Q546K)): 94%; remaining binding at 1 µM (DLK): 26%; remaining binding at 1 µM (NEK4): 15%; remaining binding at 1 µM [2]: 0%; remaining binding at 1 µM (DRAK2): 98%; remaining binding at 1 µM (BMPR1B): 86%; remaining binding at 1 µM (ERBB2): 71%; remaining binding at 1 µM (CDK3): 40%; remaining binding at 1 µM (SGK3): 100%; remaining binding at 1 µM (PKAC-beta): 78%; remaining binding at 1 µM (CDC2L5): 0.75%; remaining binding at 1 µM (ADCK3): 96%
"CCN1CCN(Cc2cc(NC(=O)c3ccc(C)c(-c4ccc5nc(NC(=O)C6CC6)cn5n4)c3)cc(C(F)(F)F)c2)CC1 [Compound I-2, 3-(2-(cyclopropanecarboxamido)imidazo[1,2-b]pyridazin-6-yl)-N-(3-((4-ethylpiperazin-1-yl)methyl)-5-(trifluoromethyl)phenyl)-4-methylbenzamide]",100%,73%,0.05%,93%,0%,0%,83%,0%,71%,0.15%,14%,89%,87%,93%,50%,100%,50%,92%,62%,81%,remaining binding at 1 µM (WNK1): 100%; remaining binding at 1 µM (ERK5): 95%; remaining binding at 1 µM (PRKR): 97%; remaining binding at 1 µM (DYRKIA): 92%; remaining binding at 1 µM (PLK1): 98%; remaining binding at 1 µM (PRKD3): 100%; remaining binding at 1 µM (CTK): 38%; remaining binding at 1 µM (PIK3CA(Q546K)): 76%; remaining binding at 1 µM (DLK): 15%; remaining binding at 1 µM (NEK4): 28%; remaining binding at 1 µM [2]: 0%; remaining binding at 1 µM (DRAK2): 89%; remaining binding at 1 µM (BMPR1B): 84%; remaining binding at 1 µM (ERBB2): 82%; remaining binding at 1 µM (CDK3): 5.7%; remaining binding at 1 µM (SGK3): 100%; remaining binding at 1 µM (PKAC-beta): 92%; remaining binding at 1 µM (CDC2L5): 0.3%; remaining binding at 1 µM (ADCK3): 97%
